Laboratory results: publication PMC11090211 (Chemico-biological interactions, 2024)
Like-named read-outs stand apart in the source and are kept apart here.

How the values were obtained:
[1] = target: H44R/H48Q yeast alcohol dehydrogenase (Saccharomyces cerevisiae, UniProt P00330, H45R/H49Q); conditions: pH 7.3, 30 °C
[2] = tested on: wild-type yeast alcohol dehydrogenase; conditions: pH 7.3, 30 °C, cited from earlier work
[3] = tested on: H48Q yeast alcohol dehydrogenase; conditions: pH 7.3, 30 °C, cited from earlier work
[4] = tested on: H44R yeast alcohol dehydrogenase; conditions: pH 7.3, 30 °C, cited from earlier work
[5] = target: T1, H44R/H48Q yeast ADH (Saccharomyces cerevisiae, UniProt P00330, H45R/H49Q); type: biochemical
[6] = target: T2, wild-type yeast ADH (Saccharomyces cerevisiae, UniProt P00330); conditions: cited from earlier work
T2 sequence (P00330 1-348): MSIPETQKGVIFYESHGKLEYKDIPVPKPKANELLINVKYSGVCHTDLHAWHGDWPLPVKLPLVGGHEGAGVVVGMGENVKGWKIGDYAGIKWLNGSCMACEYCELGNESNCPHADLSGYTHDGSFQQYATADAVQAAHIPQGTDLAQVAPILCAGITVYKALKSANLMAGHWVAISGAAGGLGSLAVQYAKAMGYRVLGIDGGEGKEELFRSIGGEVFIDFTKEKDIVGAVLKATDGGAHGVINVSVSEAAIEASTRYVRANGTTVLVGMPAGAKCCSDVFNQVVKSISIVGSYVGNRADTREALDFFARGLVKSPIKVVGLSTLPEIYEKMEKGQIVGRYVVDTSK

[7] = target: T1, H44R/H48Q yeast ADH; type: biochemical; conditions: for VD1, isotope effect for oxidation of ethanol: 550 mM ethanol, 2 mM NAD^+, single concentration, duplicate
[8] = target: T2, wild-type yeast ADH; assay: Inactivation by diethyl pyrocarbonate; type: biochemical; conditions: pH 8.0, 30 °C
[9] = target: T1, H44R/H48Q yeast ADH; assay: Inactivation by diethyl pyrocarbonate; type: biochemical; conditions: pH 8.0, 30 °C
[10] = target: T2, wild-type yeast ADH; conditions: cited from earlier work; remark: listed apart in the source
[11] = target: T3, H48Q yeast ADH (Saccharomyces cerevisiae, UniProt P00330, H49Q); assay: Inactivation by diethyl pyrocarbonate; type: biochemical; conditions: pH 8.0, 30 °C
[12] = target: T4, H44R yeast ADH (Saccharomyces cerevisiae, UniProt P00330, H45R); assay: Inactivation by diethyl pyrocarbonate; type: biochemical; conditions: pH 8.0, 30 °C
[13] = target: T2, wild-type yeast ADH; conditions: ethanol or ethanol-d5 15–200 mM, 10 mM NAD^+, 30 °C, ref 6 and 9, cited from earlier work
[14] = target: T3, H48Q yeast ADH; conditions: ethanol or ethanol-d5 15–200 mM, 10 mM NAD^+, 30 °C, ref 6 and 9, cited from earlier work
[15] = target: T4, H44R yeast ADH; conditions: ethanol or ethanol-d5 15–200 mM, 10 mM NAD^+, 30 °C, ref 6 and 9, cited from earlier work
[16] = 83 mM potassium phosphate, 40 mM KCl
[17] = read-out: Kia, inhibition (dissociation) constant for NAD^+, 83 mM potassium phosphate, 40 mM KCl
[18] = 90 μM diethyl pyrocarbonate, 33 mM sodium phosphate buffer
[19] = after 90 μM diethyl pyrocarbonate

T3 sequence (P00330 2-348 H49Q): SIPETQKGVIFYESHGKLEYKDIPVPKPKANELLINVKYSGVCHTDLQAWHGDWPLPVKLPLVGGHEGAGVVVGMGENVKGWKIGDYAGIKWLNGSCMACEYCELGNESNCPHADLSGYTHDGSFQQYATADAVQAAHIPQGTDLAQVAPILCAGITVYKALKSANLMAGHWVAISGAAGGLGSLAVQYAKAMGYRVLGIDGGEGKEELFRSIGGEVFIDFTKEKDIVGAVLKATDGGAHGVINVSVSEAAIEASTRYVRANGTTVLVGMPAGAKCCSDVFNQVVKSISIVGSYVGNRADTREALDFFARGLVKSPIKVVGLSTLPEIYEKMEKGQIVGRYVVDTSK
T1 sequence (P00330 2-348 H45R/H49Q): as the sequence (P00330 2-348 H49Q) above, with H44R counted along it
Chain of H44R/H48Q yeast alcohol dehydrogenase (P00330 2-348 H45R/H49Q): as the sequence (P00330 2-348 H49Q) above, with H44R counted along it
T4 sequence (P00330 2-348 H45R): as the sequence (P00330 2-348 H49Q) above, with H44R, Q48H counted along it

N=C([O-])c1ccc[n+]([C@@H]2O[C@H](COP(=O)(O)OP(=O)([O-])OC[C@H]3O[C@@H](n4cnc5c(N)ncnc54)[C@H](O)[C@@H]3O)[C@@H](O)[C@H]2O)c1.[Li+] [NAD^+]
Ka, Michaelis constant for NAD^+ [1, 16]: 320 µM
Ka, Michaelis constant for NAD^+ [2, 16]: 160 µM
Ki [2, 17]: 950 µM
Ka, Michaelis constant for NAD^+ [3, 16]: 100 µM
Ki [3, 17]: 410 µM
Ka, Michaelis constant for NAD^+ [4, 16]: 150 µM
Ki [4, 17]: 260 µM
pK of pH dependence of Kia [5]: ~pH independent
pK of pH dependence of V1/EtKa [5]: 8.03 ± 0.04
Ki ([5]; read-out: Kia, at pH 7): 160 µM
Kia, limiting value ka ([6]; EH form): 0.54 ± 0.06 mM
V1/EtKa ([6]; at pH 7): 1570 (at pH 7) mM^−1s^−1
pK of pH dependence of Kia [6]: 8.1 ± 0.2
slope of pH dependence of V1/EtKa [6]: −0.11 ± 0.02

CC=O [acetaldehyde]
Kp, Michaelis constant for acetaldehyde [1, 16]: 22 mM
V2/Et, turnover number for acetaldehyde reduction [1, 16]: 1040 s⁻¹
V2/Etkp, catalytic efficiency for acetaldehyde reduction [1, 16]: 47 mM⁻¹ s⁻¹
isotope effect (for VD2/Kp), acetaldehyde reduction ([7]; 1 mM acetaldehyde with 0.15 mM NADH, over the pH range): ~ 2
V2/EtkpKiq ([2]; NADH and acetaldehyde): 77000 mM^−2 s^−1
Kp, Michaelis constant for acetaldehyde [2, 16]: 0.74 mM
V2/Et, turnover number for acetaldehyde reduction [2, 16]: 1800 s⁻¹
Ki ([2]; read-out: Kip, intercept inhibition constant, product inhibition studies): 1500 µM
V2/EtkpKiq ([3]; NADH and acetaldehyde): 19000 mM^−2 s^−1
Kp, Michaelis constant for acetaldehyde [3, 16]: 12 mM
V2/Et, turnover number for acetaldehyde reduction [3, 16]: 3000 s⁻¹
V2/Etkp, catalytic efficiency for acetaldehyde reduction [3, 16]: 250 mM⁻¹ s⁻¹
V2/EtkpKiq ([4]; NADH and acetaldehyde): 6100 mM^−2 s^−1
Kp, Michaelis constant for acetaldehyde [4, 16]: 4.7 mM
V2/Et, turnover number for acetaldehyde reduction [4, 16]: 460 s⁻¹
V2/Etkp, catalytic efficiency for acetaldehyde reduction [4, 16]: 98 mM⁻¹ s⁻¹
pK of pH dependence of V2/Et [5]: 9.6 ± 0.1
V2/Et, limiting value ka ([5]; EH form): ka 850 ± 60 s^−1
V1/EtKp, limiting value ka ([5]; EH form, NADH and acetaldehyde): ka 32 ± 3 mM^−1s^−1
pK of pH dependence of V1/EtKp ([5]; NADH and acetaldehyde): 9.5 ± 0.1
V1/EtKp, limiting value ka ([6]; EH form, NADH and acetaldehyde): ka 3200 ± 200 mM^−1s^−1
V2/Et, limiting value ka ([6]; EH form): 3600 ± 300 s⁻¹
pK of pH dependence of V1/EtKp ([6]; NADH and acetaldehyde): 7.7 ± 0.1
pK of pH dependence of V2/Et [6]: 7.8 ± 0.2

CCOC(=O)OC(=O)OCC [diethyl pyrocarbonate]
Inactivation constant [8, 18]: 180 M⁻¹ s⁻¹
Residual activity (% of initial) [8, 19]: 3.1 % of initial
Inactivation constant ([9]; 120 μM diethyl pyrocarbonate, 33 mM sodium phosphate buffer): 11 M⁻¹ s⁻¹
Residual activity (% of initial) ([9]; after 120 μM diethyl pyrocarbonate): 64 % of initial
pK of the rate of inactivation by diethyl pyrocarbonate ([10]; enzyme-NADH complex): 8.7
pK value of the rate of inactivation by diethyl pyrocarbonate ([10]; free enzyme): 7.1
Inactivation constant [11, 18]: 25 M⁻¹ s⁻¹
Residual activity (% of initial) [11, 19]: 55 % of initial
Inactivation constant [12, 18]: 31 M⁻¹ s⁻¹
Residual activity (% of initial) [12, 19]: 30 % of initial

CCO [ethanol]
V1/Et, turnover number for ethanol oxidation [1, 16]: 24 s⁻¹
KbKia/Ka, slope inhibition constant ([1]; product inhibition studies): 36 mM
VD1, isotope effect for oxidation of ethanol ([7]; pH 6 (MES)): 2.8
VD1, isotope effect for oxidation of ethanol ([7]; pH 7 (MOPS)): 4.2
VD1, isotope effect for oxidation of ethanol ([7]; pH 8 (TAPS)): 2.9
VD1, isotope effect for oxidation of ethanol ([7]; pH 9 (TAPS)): 2.3
VD1, isotope effect for oxidation of ethanol ([7]; pH 10 (CAPSO)): 1.8
VD1, isotope effect for oxidation of ethanol ([13]; pH 6): 2.0
VD1, isotope effect for oxidation of ethanol ([13]; pH 7): 1.8
VD1, isotope effect for oxidation of ethanol ([13]; pH 8): 1.8
VD1, isotope effect for oxidation of ethanol ([13]; pH 9): 1.4
VD1, isotope effect for oxidation of ethanol ([13]; pH 10): 1.3
V1/Et, turnover number for ethanol oxidation [2, 16]: 360 s⁻¹
V1/Et, turnover number for ethanol oxidation [3, 16]: 30 s⁻¹
VD1, isotope effect for oxidation of ethanol ([14]; pH 6): 3.9
VD1, isotope effect for oxidation of ethanol ([14]; pH 7): 4.2
VD1, isotope effect for oxidation of ethanol ([14]; pH 8): 3.3
VD1, isotope effect for oxidation of ethanol ([14]; pH 9): 2.9
VD1, isotope effect for oxidation of ethanol ([14]; pH 10): 2.3
V1/Et, turnover number for ethanol oxidation [4, 16]: 60 s⁻¹
pK of pH dependence of V1/EtKb [5]: 8.5 ± 0.1
pK1 of pH dependence of V1/Et ([5]; deprotonation of H2E, NAD^+ and ethanol): 7.0 ± 0.2
pK2 of pH dependence of V1/Et ([5]; deprotonation of HE, NAD^+ and ethanol): 9.2 ± 0.3
V1/EtKb, limiting value ka ([6]; EH form): 3500 ± 900 M⁻¹ s⁻¹
pK of pH dependence of V1/Et [6]: 7.3 ± 0.1
pK of pH dependence of V1/EtKb [6]: 7.8 ± 0.2
VD1, isotope effect for oxidation of ethanol ([15]; pH 6): 3.5
VD1, isotope effect for oxidation of ethanol ([15]; pH 7): 1.7
VD1, isotope effect for oxidation of ethanol ([15]; pH 8): 1.2
VD1, isotope effect for oxidation of ethanol ([15]; pH 9): 1.1
VD1, isotope effect for oxidation of ethanol ([15]; pH 10): 1.1
